In ChEMBL document CHEMBL4004790, “ent-Strobane and ent-Pimarane Diterpenoids from Siegesbeckia pubescens” (J Nat Prod, 2017):
pIC50: −log10 of the molar value.

Experiments:
[1] = test system: RAW264.7; test: Antiinflammatory activity in mouse RAW264.7 cells assessed as inhibition of LPS-induced nitric oxide production after 24 hrs by Griess assay; type: functional, cell-based; conditions: RAW264.7, 24 h
[2] = test system: MDA-MB-231; test: Antiinvasive activity in human MDA-MB-231 cells assessed as inhibition of EGF-induced cell invasion after 3.5 hrs; type: functional, cell-based; conditions: MDA-MB-231, 3.5 h

pIC50 [1]	pIC50 [2]	Structure (SMILES)
< 4.00	< 5.00	C[C@@]1(CO)C[C@@H](O)C[C@@]2(C)[C@@H]3CC[C@](C)([C@H](O)CO)C=C3CC[C@H]12
< 4.00	< 5.00	C[C@@]1(CO)C[C@@H](O)C[C@@]2(C)[C@@H]3CC[C@](C)([C@@H](O)CO)C=C3CC[C@H]12 [KIRENOL]
< 4.00	5.01	C[C@@]1(CO)C[C@@H](O)C[C@@]2(C)[C@@H]3CC[C@](C)([C@@H](O)CO)C=C3[C@H](O)C[C@H]12
< 4.00	< 5.00	C[C@]1(CO)[C@H]2CCC3=C[C@@](C)([C@@H](O)CO)CC[C@H]3[C@]2(C)C[C@H](O)[C@H]1O
< 4.00	< 5.00	C[C@@]1(CO)C[C@@H](O)C[C@@]2(C)[C@@H]3CC[C@](C)([C@@H](O)CO)C=C3[C@@H](O)C[C@H]12
< 4.00	< 5.00	C[C@]1(CO)C[C@@H](O)C[C@@]2(C)[C@@H]3CC[C@](C)([C@@H](O)CO)C=C3CC[C@H]12
< 4.00	< 5.00	C[C@@]1(CO)C[C@@H](O)C[C@@]2(C)[C@@H]3CC[C@](C)(O)[C@@H](CO)C=C3CC[C@H]12
< 4.00	< 5.00	C[C@@]1(CO)C[C@H](O)C[C@@]2(C)[C@@H]3CC[C@](C)([C@@H](O)CO)C=C3CC[C@H]12

Continued, molecule first:

Structure (SMILES)	pIC50 [1]	pIC50 [2]
CC1(C)[C@H](O)CC[C@@]2(C)[C@@H]3CC[C@](C)(O)[C@@H](CO)C=C3CC[C@H]12	< 4.00	< 5.00
Cc1ccc2c(c1)CC[C@@H]1[C@](C)(CO)C[C@@H](O)C[C@@]21C	< 4.00	< 5.00
CC1(C)[C@H](O)CC[C@@]2(C)[C@@H]3CC[C@](C)([C@@H](O)CO)C=C3CC[C@H]12 [DARUTIGENOL]	< 4.00	< 5.00
CC1(C)[C@H](O)CC[C@@]2(C)[C@@H]3CC[C@](C)([C@@H](O)CO)C=C3C=C[C@H]12	< 4.00	< 5.00
C[C@@]1(CO)C[C@@H](O)C[C@@]2(C)[C@@H]3CC[C@](C)([C@@H](O)CO)C=C3C=C[C@H]12	< 4.00	< 5.00
CC1(C)[C@H](O)CC[C@@]2(C)[C@@H]3CC[C@@]4(C)[C@H](OC[C@@H]4O)C3=CC[C@H]12	< 4.00	< 5.00
CC1(C)[C@H](O)CC[C@@]2(C)[C@@H]3CC[C@](C)([C@H](O)CO)C=C3CC[C@H]12	< 4.00	5.46
CC1(C)[C@H](O)C[C@H](O)[C@@]2(C)[C@@H]3CC[C@](C)([C@@H](O)CO)C=C3CC[C@H]12	< 4.00	< 5.00
CC1(C)[C@H]2CC=C3[C@@H](CC[C@@]4(C)[C@@H]3OC[C@@H]4O)[C@]2(C)CC[C@@H]1O	< 4.00	< 5.00
Cc1ccc2c(c1)C(=O)C[C@@H]1[C@](C)(CO)CC(=O)C[C@@]21C	< 4.00	5.37
